Our source for the GI50 and TGI values is PubChem BioAssay (NCI).

“And” between values parts separate entries of the source, which are not always exact repeats. Equal entries are not always repeated.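 Cells were grown in 96-well plates and exposed to each compound for 48 hours at five concentrations; endpoints were interpolated linearly between bracketing concentrations, or set to the highest concentration if not reached. GI50: concentration for 50% inhibition of growth. At the TGI there is no net growth.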

What all share (assay): inhibition of tumour cell growth, NCI panel, 48 h
The test system of assay [1] is HT29 colon.
The test system of assay [2] is TK-10 renal.
Assay [3] deals with RXF 393 renal.
The subject of assay [4] is SK-MEL-2 melanoma.
The test system of assay [5] is BT-549 breast.
Assay [6] deals with NCI-H460 lung.
For assay [7], the system named is MOLT-4 leukemia.
Assay [8] deals with MDA-MB-435.
The test system of assay [9] is IGROV1 ovarian.
The subject of assay [10] is NCI-H226 lung.

Regarding `COC(C(=O)[C@@H](O)[C@@H](C)O)[C@@H]1Cc2cc3cc(O[C@H]4C[C@@H](O[C@H]5C[C@@H](O)[C@H](O)C(C)O5)[C@H](O)C(C)O4)c(C)c(O)c3c(O)c2C(=O)[C@H]1O[C@H]1C[C@@H](O[C@H]2C[C@@H](O[C@H]3C[C@@H](O)[C@@H](O)C(C)O3)[C@@H](O)C(C)O2)[C@H](O)C(C)O1` (stereo partly specified), the GI50 in assay [1] is 0.368 µM; in [2] it was 0.873 µM; in assay [3] it was 0.202 µM; in assay [4], 0.172 µM; in assay [5], 0.149 µM; in assay [6], 0.104 µM. Also, the GI50 in assay [7] was 1.04 µM; in assay [8], 0.27 µM. Further, the TGI was over 32.5 µM in assay [1]; over 32.5 µM in [2]; 1.01 µM in [3]; 1.11 µM in assay [4]; 4.42 µM in assay [5]; over 32.5 µM in [6]. In addition, the results for the TGI in assay [7] and in assay [8] were over 32.5 µM and 2.99 µM, respectively.

As for `CC(=O)O[C@@H]1CC(=O)O[C@@H]2C[C@@H](CC/C(Cl)=C/C/C=C\1C)O[C@@H]2CO`, the GI50 in [1] is over 25 µM; in assay [2] it was over 25 µM; in assay [3], over 25 µM; in assay [4] it was over 25 µM; in assay [5] it was 24.5 µM; in assay [9], over 25 µM. Besides, the GI50 in assay [6], in assay [10] and in [7] was over 25 µM throughout. Besides, the TGI in assay [1], in assay [2], in assay [3], in [4], in assay [5] and in [9] was over 25 µM in each case. Moreover, the TGI in [6], in [10] and in [7] was over 25 µM in each case.

On to `COc1cc2c(/C=C3/C(=O)Nc4c3ccc3ccccc43)c(Cl)[nH]c2cc1C`, for which the GI50 was 0.0246 µM in [1]; 30.5 µM in assay [2]; 0.0999 µM in [3]; 0.872 µM in assay [4]; 0.0254 µM in assay [5]; 0.0125 µM in assay [9]. For the same compound, the GI50 in assay [6] was 0.0244 µM; in assay [10] it was 0.249 µM; in [8], 0.00618 µM. For the same compound, the TGI was over 50 µM in assay [1]; over 50 µM in assay [2]; 33.4 µM in assay [3]; over 30.1 µM in [4]; over 50 µM in [5]; over 21.8 µM in assay [6]. Further, the TGI in assay [10] stood at 33.2 µM; in assay [8], 0.0238 µM.

Regarding `CCNCCNc1cc(C2CCCC2)c(C#N)c2nc3ccccc3n12`, the GI50 in assay [1] was 2.37 µM; in [2] it was 1.84 µM; in [3], 1.81 µM; in assay [4], 3.91 µM; in assay [5] it was 2.45 µM; in [9] it was 3.5 µM. For the same compound, the GI50 in [6] was 2.75 µM; in [10], 3.49 µM; in assay [8], 2.62 µM. Also, the TGI in assay [1] worked out at 5.98 µM; in [2], 5.14 µM; in assay [3] it was 4 µM; in assay [4], 16.1 µM; in assay [5] it was 5.84 µM; in assay [9], 16 µM. The TGI was 7.19 µM in assay [6], 17.5 µM in assay [10] and 7.62 µM in assay [8].

Consider `O=C(Nc1cc(Cl)cc(Cl)c1)c1ccc(NC2=C(Cl)C(=O)N(Cc3ccccc3)C2=O)cc1`, for which the GI50 was 16.8 µM in assay [1]; 19.5 µM in assay [2]; 12.7 µM in assay [4]; 4.59 µM in assay [5]; 1.57 µM in assay [9]; 1.8 µM in [6]. Moreover, the values for the GI50 in [10], in assay [7] and in assay [8] were 11.5 µM, 1.51 µM and 11.7 µM, respectively. Besides, the TGI in assay [1] is over 100 µM; in [2], 51.5 µM; in assay [4] it was 33.9 µM; in assay [5], 19.3 µM; in assay [9], 3.32 µM; in [6], 4.51 µM. For the same compound, the TGI in assay [10] was found to be 25.1 µM; in assay [7] it was 4.91 µM; in assay [8], 25.2 µM.

As for `CC1=C(C(=O)Nc2ccc(Cl)c(Cl)c2)C(c2cccc(O)c2)NC(=S)N1` (stereo unspecified), the GI50 in assay [3] was 12.8 µM; in assay [4], 8 µM; in [5] it was 7.97 µM; in assay [9], 12.8 µM; in assay [6], 13.5 µM; in [10], 12 µM. Moreover, the GI50 in assay [7] was 16.8 µM; in assay [8], 9.16 µM. The TGI was 29.3 µM in [3]; 18.3 µM in assay [4]; 19.3 µM in assay [5]; 44.2 µM in [9]; 21.4 µM in assay [6]; 30.8 µM in assay [10]. Besides, the figures for the TGI in assay [7] and in assay [8] were over 50 µM and 18.5 µM, respectively.

With `COC(=O)/C(Br)=C/c1c[nH]c2ccc(Br)cc12`, the GI50 in [1] was 11 µM; in assay [2] it was 19 µM; in assay [4], 6.9 µM; in assay [5], 11.2 µM; in [6] it was 17.6 µM; in assay [10], 14.4 µM. Moreover, the figures for the GI50 in [7] and in [8] were 10.6 µM and 12.2 µM, respectively. In addition, the TGI is 24.8 µM in [1]; 49.4 µM in [2]; 25.4 µM in assay [4]; 23.6 µM in [5]; 36.9 µM in assay [6]; 33.2 µM in assay [10]. In addition, the figures for the TGI in assay [7] and in assay [8] were over 100 µM and 25.3 µM, respectively.

As for `Cn1cc(-c2nc(-c3cn(C)c4ncccc34)cs2)c2cc(F)ccc21`, the GI50 in assay [2] was 3.01 µM; in assay [3], 1.51 µM; in assay [4], 3.96 µM; in [5], 2.2 µM; in assay [6] it was 1.12 µM; in assay [10], 2.6 µM. Also, the figures for the GI50 in assay [7] and in assay [8] were 3.17 µM and 0.237 µM, respectively. In addition, the TGI in assay [2] was 38 µM; in assay [3], 4.77 µM; in assay [4], 37.2 µM; in assay [5], 37.6 µM; in assay [6], 18.9 µM; in assay [10], over 100 µM. For the same compound, the TGI in [7] is over 100 µM; in assay [8], 0.713 µM.

Take `O=C(O)c1cn(C2CC2)c2cc(N3CCN(C(=O)Nc4nc(-c5ccc(Cl)cc5)cs4)CC3)c(F)cc2c1=O`: the GI50 in assay [1] was 2.99 µM; in assay [2], 4.11 µM; in [3], 3.37 µM; in assay [4], 2.4 µM; in [5], 0.934 µM; in assay [9], 0.815 µM. The GI50 in [6] is 1.76 µM; in assay [10], 3.23 µM; in [8], 2.75 µM. Besides, the TGI in [1] is over 100 µM; in assay [2] it was over 100 µM; in [3], 54.6 µM; in [4], 6.85 µM; in assay [5], 25.5 µM; in assay [9], over 100 µM. The TGI was over 100 µM in assay [6], 87.7 µM in [10] and over 100 µM in assay [8].

On to `O=C(/C=C/c1ccc2c(c1)OCO2)c1ccccc(=O)c1O`, for which the TGI was 26.3 µM in assay [1]; 43.5 µM in [2]; 72.7 µM in assay [4]; 47.6 µM in assay [5]; 41.8 µM in assay [9]; 41.7 µM in assay [6]. For the same compound, the TGI in [10], in [7] and in assay [8] was over 100 µM each time.

As for `O=CNc1ccc2c(c1)Cc1cc([N+](=O)[O-])ccc1-2`, the GI50 is 4.5 µM in [1]; 10.2 µM in [2]; 2.33 µM in [3]; 3.58 µM in assay [4]; 2.93 µM in assay [5]; 3.95 µM in assay [9]. The GI50 in assay [6] is 2.78 µM; in [10], 27.7 µM; in assay [7] it was 2.78 µM. For the same compound, the TGI in [1], in assay [2], in assay [3], in assay [4], in assay [5] and in [9] was over 100 µM each time. Besides, the TGI in [6] was over 60.3 µM; in [10], over 100 µM; in assay [7], over 53.1 µM.

`CCC1=C[C@H]2CN(CCc3c([nH]c4ccccc34)[C@@](C(=O)OC)(c3cc4c(cc3OC)N(C)[C@H]3[C@@](O)(C(=O)OC)[C@H](OC(C)=O)[C@]5(CC)[C@@H]6C[C@@H]6CN6CC[C@]43[C@@H]65)C2)C1`: the GI50 in assay [1] was 0.0113 µM; in assay [2] it was 3.33 µM; in assay [4], 0.0752 µM; in assay [5], 0.106 µM; in assay [9], 0.144 µM; in [6], 0.0383 µM. The results for the GI50 in assay [10], in assay [7] and in [8] were 2.65 µM, 0.0737 µM and 0.00603 µM, respectively. For the same compound, the TGI in assay [1] worked out at 2.91 µM; in assay [2], 8.13 µM; in assay [4], 4.64 µM; in [5], 4.29 µM; in assay [9], 6.77 µM; in assay [6], 2.65 µM. Also, the TGI was 10.3 µM in [10], over 25 µM in [7] and 0.0211 µM in [8].

In the case of `COc1ccc(/C=C/C(=O)c2ccc(NC(=O)CSc3nnc(-c4cc(OC)c(OC)c(OC)c4)o3)cc2)cc1`, the GI50 was 1.83 µM in assay [1]; 1.52 µM in [2]; 1.74 µM in [3]; 1.79 µM in assay [4]; 1.4 µM in [5]; 2 µM in [6]. The GI50 in assay [10] is 2.67 µM; in assay [7], 2.05 µM; in [8], 1.7 µM. Besides, the TGI was determined as 3.62 µM in assay [1]; 3.03 µM in [2]; 3.54 µM in [3]; 4.82 µM in [4]; 2.81 µM in [5]; 3.85 µM in [6]. In addition, the TGI came out at 5.69 µM in assay [10], 5.27 µM in assay [7] and 3.4 µM in [8].

For the compound `COc1ccc2oc(-c3ccc(Cl)cc3)c(N3CCN(C)CC3)c2c1`, the GI50 was 1.42 µM in [1]; 1.83 µM in [2]; 1.8 µM in assay [4]; 6.39 µM in assay [5]; 1.05 µM in [9]; 1.94 µM in [6]. The GI50 in assay [10] is 3.16 µM; in assay [7], 2.28 µM; in [8], 1.83 µM. Also, the TGI in assay [1] came to 3.32 µM; in assay [2], 3.58 µM; in assay [4] it was 4.4 µM; in [5], 20.7 µM; in [9] it was 2.69 µM; in assay [6] it was 4.16 µM. For the same compound, the TGI in assay [10] came to 14.5 µM; in assay [7], 6.95 µM; in assay [8], 4.06 µM.

Consider `COC(=O)C12OCC34C(CC5C(C)=CC(=O)C(O)C5(C)C3C(O)C1O)OC(=O)C(OC(=O)CC(C)C)C24` (stereo unspecified), for which the GI50 in assay [1] is 0.0588 µM; in [2], 0.0166 µM; in [3], 0.0427 µM and 0.05 µM; in assay [4], 0.0562 µM and 0.316 µM; in assay [9], < 0.0288 µM and 0.05 µM; in assay [10], under 0.0345 µM. For the same compound, the TGI is 0.16 µM and 0.477 µM in [2]; 0.00549 µM in assay [5]; 0.00697 µM in [8].

For the compound `Cc1cc(Cl)ccc1Nc1nc(C(F)(F)F)ccc1C(=O)N/N=C/c1ccc(F)cc1`, the GI50 in assay [1] is 2.83 µM; in assay [2], 1.7 µM; in assay [4], 1.84 µM; in assay [5], 1.06 µM; in assay [9], 2.11 µM; in [6] it was 1.95 µM. For the same compound, the GI50 in assay [10] was 2.36 µM; in assay [7] it was 1.6 µM; in assay [8] it was 2.78 µM. Further, the TGI in assay [1] was determined as 10.3 µM; in assay [2] it was 7.6 µM; in [4] it was 5.82 µM; in [5], 3.51 µM; in assay [9] it was 13.9 µM; in assay [6], 6.04 µM. For the same compound, the TGI came out at 7.63 µM in [10], 4.98 µM in assay [7] and 11 µM in [8].
